The record followed here is patent US8202865B2, “Oxadiazole derivatives” (Merck Serono SA, priority 2007, dated 2012).

Assay [1] addresses T1, S1P1 (Homo sapiens, UniProt P21453).
T1 construct: expressed in transfected cells; host or cells: CHO cells (membranes)
Put plainly: 35S-GTPγS binding, S1P1 membranes. Type of assay: biochemical. The conditions noted are these: membranes from CHO cells expressing S1P1; 60 min 30° C. The essentials:
(§1)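 CHO-cell membranes expressing S1P1 or S1P3 (1-10 μg) incubated with compounds in 20 mM HEPES pH 7.4, 10 mM MgCl2, 140 mM NaCl, saponin, 0.2% BSA, 1.7 μM GDP and [35S]-GTPγS (20 μl of 1.5 nM added), 60 min at 30° C. Bound radioactivity expressed as % of S1P activation.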

The target in assay [2] is T2, S1P3 (Homo sapiens, UniProt Q99500).
T2 construct: expressed in transfected cells; host or cells: CHO cells (membranes)
T2 sequence (Q99500 whole entry, species assumed): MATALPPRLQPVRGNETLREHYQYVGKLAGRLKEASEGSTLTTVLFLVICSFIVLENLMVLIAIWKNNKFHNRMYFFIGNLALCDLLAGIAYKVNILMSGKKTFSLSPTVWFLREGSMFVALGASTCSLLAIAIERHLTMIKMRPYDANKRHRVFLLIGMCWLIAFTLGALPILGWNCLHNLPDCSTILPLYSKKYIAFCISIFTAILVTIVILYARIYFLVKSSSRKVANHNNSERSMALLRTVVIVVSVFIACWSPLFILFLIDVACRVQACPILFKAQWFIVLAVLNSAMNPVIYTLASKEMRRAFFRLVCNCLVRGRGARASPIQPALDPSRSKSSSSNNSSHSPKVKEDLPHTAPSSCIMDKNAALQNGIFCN
Put plainly: 35S-GTPγS binding, S1P3 membranes. The format is biochemical. The conditions noted are these: membranes from CHO cells expressing S1P3; 60 min 30° C. The essentials:
as §1

For assay [3], the target named is T1, S1P1. Nature of the assay: Receptor binding assay, [33P]sphingosine 1-phosphate, membranes, WGA SPA beads. As to conditions: membranes from CHO cells expressing S1P1; 25 pM [33P]S1P; 60 min RT. The essentials:
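CHO-cell membranes expressing S1P1 incubated with 25 pM [33P]S1P in 50 mM HEPES pH 7.5, 5 mM MgCl2, 100 mM NaCl, 0.4% fatty acid-free BSA with WGA SPA beads for 60 min at RT. Bound radioactivity counted by scintillation proximity; specific binding defined using 1000-fold excess unlabeled S1P.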

Where a name gives a salt, the structure may show the parent alone.

T1 sequence (P21453 whole entry, species assumed): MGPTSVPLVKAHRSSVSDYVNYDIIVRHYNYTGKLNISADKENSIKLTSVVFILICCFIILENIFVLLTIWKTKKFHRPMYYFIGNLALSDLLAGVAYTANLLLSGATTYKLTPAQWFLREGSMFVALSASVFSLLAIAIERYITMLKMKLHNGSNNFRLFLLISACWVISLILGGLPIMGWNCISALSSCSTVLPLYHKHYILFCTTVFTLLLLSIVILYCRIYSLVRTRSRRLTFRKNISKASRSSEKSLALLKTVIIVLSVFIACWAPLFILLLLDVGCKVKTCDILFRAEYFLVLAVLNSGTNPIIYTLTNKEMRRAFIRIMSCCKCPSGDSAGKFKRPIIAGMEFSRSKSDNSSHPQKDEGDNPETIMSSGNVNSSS

On to `CC1CCCCN1c1ccc(-c2nc(-c3ccc(C(=O)O)c(F)c3)no2)cc1NS(=O)(=O)N(C)C` (stereo not drawn) [Example 73, 4-{5-[3-{[(dimethylamino)sulfonyl]amino}-4-(2-methylpiperidin-1-yl)phenyl]-1,2,4-oxadiazol-3-yl}-2-fluorobenzoic acid], for which the EC50 in assay [1] was 122 nM; in assay [2] it was 2000 nM. In addition, affinity in assay [3] was put at a Ki of 213 nM.
For `COCc1cc(-c2nc(-c3cccc(CN(C)CC(=O)O)c3)no2)ccc1OC(C)C` [Example 148, N-(3-{5-[4-isopropoxy-3-(methoxymethyl)phenyl]-1,2,4-oxadiazol-3-yl}benzyl)-N-methylglycine, Hydrochloride salt], the EC50 in assay [1] was determined as 4 nM; in assay [2] it was 2350 nM. This compound also yielded a Ki in assay [3] of 0.7 nM.
`COCc1cc(-c2nc(-c3ccc(C(=O)NCCc4nnn[nH]4)c(F)c3)no2)ccc1-c1ccccc1C` [Example 177, 2-fluoro-4-{5-[2-(methoxymethyl)-2′-methylbiphenyl-4-yl]-1,2,4-oxadiazol-3-yl}-N-[2-(1H-tetrazol-5-yl)ethyl]benzamide]: the EC50 in assay [1] was 1.3 nM; in assay [2], 1150 nM. Further, affinity in assay [3] was put at a Ki of 2 nM.
For the compound `COc1ncccc1-c1ccc(-c2nc(-c3ccc(C(=O)O)c(F)c3)no2)cc1C` [Example 28, 2-fluoro-4-{5-[4-(2-methoxypyridin-3-yl)-3-methylphenyl]-1,2,4-oxadiazol-3-yl}benzoic acid], the results for the EC50 in assay [1] and in assay [2] were 834 nM and > 30000 nM, respectively. In assay [3], the Ki came to 190 nM.
For `COCc1cc(-c2nc(-c3ccc(C(=O)O)c(F)c3)no2)ccc1-c1ccccc1C(F)(F)F` [Example 86, 2-fluoro-4-{5-[2-(methoxymethyl)-2′-(trifluoromethyl)biphenyl-4-yl]-1,2,4-oxadiazol-3-yl}benzoic acid], in that order: 155 nM, > 20000 nM and 48 nM.
Take `Cc1ccccc1-c1ccc(-c2nc(-c3ccc(C(=O)O)c(F)c3)no2)cc1C` [Example 4, 4-[5-(2,2′-dimethylbiphenyl-4-yl)-1,2,4-oxadiazol-3-yl]-2-fluorobenzoic acid]: the results for the EC50 in assay [1] and in assay [2] were 317 nM and > 30000 nM, respectively. Further, the inhibition constant (Ki) in assay [3] was 126 nM.
`CCCS(=O)(=O)Nc1cc(-c2nc(-c3ccc(C(=O)O)c(F)c3)no2)ccc1N1CCCCC1C` (stereo not drawn) [Example 74, 2-fluoro-4-(5-{4-(2-methylpiperidin-1-yl)-3-[(propylsulfonyl)amino]phenyl}-1,2,4-oxadiazol-3-yl)benzoic acid]: the EC50 in assay [1] was 408 nM; in assay [2], 1770 nM. Besides, in assay [3], the Ki was 443 nM.
With `CC1CCCCN1c1ccc(-c2nc(-c3ccc(C(=O)O)cc3F)no2)cc1C(F)(F)F` (stereo not drawn) [Example 27, 3-fluoro-4-{5-[4-(2-methylpiperidin-1-yl)-3-(trifluoromethyl)phenyl]-1,2,4-oxadiazol-3-yl}benzoic acid], the values for the EC50 in assay [1] and in assay [2] were 1100 nM and > 20000 nM, respectively. The compound also returned a Ki in assay [3] of 505 nM.
The corresponding values for `COCc1cc(-c2nc(-c3ccc(C(=O)NCC(=O)O)c(F)c3)no2)ccc1-c1ccccc1C` [Example 124, N-(2-fluoro-4-{5-[2-(methoxymethyl)-2′-methylbiphenyl-4-yl]-1,2,4-oxadiazol-3-yl}benzoyl)glycine] are 22 nM, 1000 nM and 2 nM.
As for `COCc1cc(-c2nc(-c3cccc(CO)c3)no2)ccc1-c1ccccc1C` [Example 189, (3-{5-[2-(methoxymethyl)-2′-methylbiphenyl-4-yl]-1,2,4-oxadiazol-3-yl}phenyl)methanol], the concentration giving a half-maximal response (EC50) was 2.1 nM in assay [1] and 574 nM in assay [2]. Moreover, in assay [3], the Ki was 1 nM.
With `COCc1cc(-c2nc(-c3ccc(C(=O)NCCNC(C)=O)c(F)c3)no2)ccc1-c1ccccc1C` [Example 174, N-[2-(acetylamino)ethyl]-2-fluoro-4-{5-[2-(methoxymethyl)-2′-methylbiphenyl-4-yl]-1,2,4-oxadiazol-3-yl}benzamide], the EC50 in assay [1] was 17 nM; in assay [2] it was 1420 nM. The compound also registered a Ki in assay [3] of 3.4 nM.
As to `Cc1cscc1-c1ccc(-c2nc(-c3ccc(C(=O)O)c(F)c3)no2)cc1C(F)(F)F` [Example 23, 2-fluoro-4-{5-[4-(4-methyl-3-thienyl)-3-(trifluoromethyl)phenyl]-1,2,4-oxadiazol-3-yl}benzoic acid], the EC50 in assay [1] came to 197 nM; in assay [2], 14900 nM. In assay [3], the Ki worked out at 90 nM.
Consider `Cc1ccccc1-c1ccc(-c2nc(-c3ccc(OCC(=O)O)c(F)c3)no2)cc1C` [Example 48, {4-[5-(2,2′-dimethylbiphenyl-4-yl)-1,2,4-oxadiazol-3-yl]-2-fluorophenoxy}acetic acid], for which the EC50 in assay [1] was 129 nM; in assay [2], 17000 nM. The compound also came in with a Ki in assay [3] of 40 nM.
